Experimental data published in ChEMBL document CHEMBL5291721, “A preclinical secondary pharmacology resource illuminates target-adverse drug reaction associations of marketed drugs” (Nat Commun, 2023).

Tests used:
Histamine H3 receptor = Histamine H3 receptor (Homo sapiens, UniProt Q9Y5N1)
Prothrombin = Prothrombin (Homo sapiens, UniProt P00734); assay type: functional
[1] = biological target: T1, Amine oxidase [flavin-containing] A (Homo sapiens, UniProt P21397); assay type: functional
T1 sequence (P21397 whole entry): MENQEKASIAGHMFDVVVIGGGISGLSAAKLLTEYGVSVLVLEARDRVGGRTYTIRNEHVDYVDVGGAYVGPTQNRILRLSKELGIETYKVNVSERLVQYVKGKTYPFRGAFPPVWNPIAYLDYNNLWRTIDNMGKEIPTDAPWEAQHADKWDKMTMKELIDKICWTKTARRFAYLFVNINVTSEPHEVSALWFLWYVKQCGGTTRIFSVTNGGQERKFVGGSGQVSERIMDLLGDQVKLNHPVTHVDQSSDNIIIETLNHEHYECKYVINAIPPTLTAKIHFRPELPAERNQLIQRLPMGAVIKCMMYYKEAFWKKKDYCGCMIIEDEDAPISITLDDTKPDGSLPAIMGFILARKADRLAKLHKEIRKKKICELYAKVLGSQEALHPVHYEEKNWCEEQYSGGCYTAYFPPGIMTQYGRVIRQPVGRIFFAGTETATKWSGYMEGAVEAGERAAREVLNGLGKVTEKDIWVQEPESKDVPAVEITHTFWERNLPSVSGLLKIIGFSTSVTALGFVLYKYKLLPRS

[2] = biological target: Voltage-gated inwardly rectifying potassium channel KCNH2 (Homo sapiens, UniProt Q12809); assay type: functional
[3] = biological target: Sodium-dependent dopamine transporter (Homo sapiens, UniProt Q01959)
[4] = biological target: cGMP-inhibited 3',5'-cyclic phosphodiesterase 3A (Homo sapiens, UniProt Q14432); assay type: functional
[5] = biological target: T2, Alpha-1A adrenergic receptor (Homo sapiens, UniProt P35348); assay type: functional, cell-based
T2 sequence (P35348 whole entry): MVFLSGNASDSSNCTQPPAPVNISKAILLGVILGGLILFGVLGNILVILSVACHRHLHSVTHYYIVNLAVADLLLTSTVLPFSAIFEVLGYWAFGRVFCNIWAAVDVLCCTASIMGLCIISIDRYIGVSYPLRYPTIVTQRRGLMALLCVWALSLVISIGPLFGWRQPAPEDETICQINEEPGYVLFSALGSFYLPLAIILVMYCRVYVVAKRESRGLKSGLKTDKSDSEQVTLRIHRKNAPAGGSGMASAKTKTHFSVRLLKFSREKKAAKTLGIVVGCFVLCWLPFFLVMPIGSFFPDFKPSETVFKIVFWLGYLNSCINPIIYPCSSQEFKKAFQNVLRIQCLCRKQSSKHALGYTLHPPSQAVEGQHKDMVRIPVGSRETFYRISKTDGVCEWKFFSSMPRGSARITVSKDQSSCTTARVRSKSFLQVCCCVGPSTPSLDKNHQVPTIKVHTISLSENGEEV

Progesterone receptor = biological target: T3, Progesterone receptor (Homo sapiens, UniProt P06401)
T3 sequence (P06401 whole entry): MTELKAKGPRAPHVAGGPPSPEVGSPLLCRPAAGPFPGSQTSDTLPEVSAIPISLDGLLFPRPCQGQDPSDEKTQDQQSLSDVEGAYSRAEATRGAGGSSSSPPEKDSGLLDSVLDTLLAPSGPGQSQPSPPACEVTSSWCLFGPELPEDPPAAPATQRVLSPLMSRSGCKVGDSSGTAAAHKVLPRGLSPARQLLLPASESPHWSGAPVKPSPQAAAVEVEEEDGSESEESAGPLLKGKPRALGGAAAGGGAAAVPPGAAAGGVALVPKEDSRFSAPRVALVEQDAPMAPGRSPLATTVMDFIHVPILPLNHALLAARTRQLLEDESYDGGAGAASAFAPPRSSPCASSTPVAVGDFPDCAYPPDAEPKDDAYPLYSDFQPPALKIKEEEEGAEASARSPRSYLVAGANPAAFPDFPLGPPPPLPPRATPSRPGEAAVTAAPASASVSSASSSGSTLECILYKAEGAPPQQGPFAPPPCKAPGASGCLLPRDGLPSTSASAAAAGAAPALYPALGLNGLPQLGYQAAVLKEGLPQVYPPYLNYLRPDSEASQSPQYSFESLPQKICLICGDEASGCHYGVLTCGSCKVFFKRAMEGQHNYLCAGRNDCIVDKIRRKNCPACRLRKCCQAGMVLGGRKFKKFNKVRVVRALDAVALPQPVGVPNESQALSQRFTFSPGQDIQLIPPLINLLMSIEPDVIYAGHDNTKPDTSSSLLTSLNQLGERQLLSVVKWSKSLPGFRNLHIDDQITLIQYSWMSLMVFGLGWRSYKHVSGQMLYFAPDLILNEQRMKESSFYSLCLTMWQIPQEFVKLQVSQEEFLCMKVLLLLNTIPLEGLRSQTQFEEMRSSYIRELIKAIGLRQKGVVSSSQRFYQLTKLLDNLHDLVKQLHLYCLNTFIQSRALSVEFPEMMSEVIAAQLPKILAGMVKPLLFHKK

[6] = biological target: T4, Alpha-2A adrenergic receptor (Homo sapiens, UniProt P08913)
T4 sequence (P08913 whole entry): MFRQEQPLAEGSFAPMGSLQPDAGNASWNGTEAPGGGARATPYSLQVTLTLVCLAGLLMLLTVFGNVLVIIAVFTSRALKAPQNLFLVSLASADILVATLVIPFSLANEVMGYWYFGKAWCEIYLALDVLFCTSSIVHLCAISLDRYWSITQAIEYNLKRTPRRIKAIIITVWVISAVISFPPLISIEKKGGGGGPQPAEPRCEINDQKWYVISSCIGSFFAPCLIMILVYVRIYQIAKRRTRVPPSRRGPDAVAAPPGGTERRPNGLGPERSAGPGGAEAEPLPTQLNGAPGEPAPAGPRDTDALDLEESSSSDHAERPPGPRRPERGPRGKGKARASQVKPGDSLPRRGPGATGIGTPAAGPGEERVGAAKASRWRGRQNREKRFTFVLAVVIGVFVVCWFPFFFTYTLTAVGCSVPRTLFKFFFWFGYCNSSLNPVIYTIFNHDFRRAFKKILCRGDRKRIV

[7] = biological target: 5-hydroxytryptamine receptor 2B (Homo sapiens, UniProt P41595); assay type: functional, cell-based
[8] = biological target: 3',5'-cyclic-AMP phosphodiesterase 4A (Homo sapiens, UniProt P27815); assay type: functional
Also: assay procedure not described here.

Chain of 3',5'-cyclic-AMP phosphodiesterase 4A (P27815 whole entry): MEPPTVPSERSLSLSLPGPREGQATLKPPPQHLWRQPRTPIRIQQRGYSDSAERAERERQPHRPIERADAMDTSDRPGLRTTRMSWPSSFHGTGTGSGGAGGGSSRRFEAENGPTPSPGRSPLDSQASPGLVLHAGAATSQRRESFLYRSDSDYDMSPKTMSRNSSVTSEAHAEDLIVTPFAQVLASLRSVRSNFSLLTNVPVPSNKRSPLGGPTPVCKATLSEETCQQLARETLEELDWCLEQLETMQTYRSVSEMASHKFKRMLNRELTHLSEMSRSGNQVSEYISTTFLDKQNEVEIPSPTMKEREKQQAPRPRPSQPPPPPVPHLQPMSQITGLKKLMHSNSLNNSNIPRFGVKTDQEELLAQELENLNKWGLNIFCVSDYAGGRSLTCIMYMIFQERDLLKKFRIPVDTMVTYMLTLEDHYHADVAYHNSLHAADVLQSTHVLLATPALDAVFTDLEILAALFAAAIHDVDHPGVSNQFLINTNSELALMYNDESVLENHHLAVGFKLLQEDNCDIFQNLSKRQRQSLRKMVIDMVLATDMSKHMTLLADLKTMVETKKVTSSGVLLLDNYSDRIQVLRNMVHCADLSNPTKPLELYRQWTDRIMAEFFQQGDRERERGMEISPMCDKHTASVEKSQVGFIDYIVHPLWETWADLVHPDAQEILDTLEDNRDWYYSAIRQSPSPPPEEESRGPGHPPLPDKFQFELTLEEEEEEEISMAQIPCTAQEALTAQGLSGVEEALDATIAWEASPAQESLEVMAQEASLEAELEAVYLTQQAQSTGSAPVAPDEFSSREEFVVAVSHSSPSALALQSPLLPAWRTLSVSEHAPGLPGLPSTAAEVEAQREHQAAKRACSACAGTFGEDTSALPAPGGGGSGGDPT
Chain of Histamine H3 receptor (Q9Y5N1 whole entry): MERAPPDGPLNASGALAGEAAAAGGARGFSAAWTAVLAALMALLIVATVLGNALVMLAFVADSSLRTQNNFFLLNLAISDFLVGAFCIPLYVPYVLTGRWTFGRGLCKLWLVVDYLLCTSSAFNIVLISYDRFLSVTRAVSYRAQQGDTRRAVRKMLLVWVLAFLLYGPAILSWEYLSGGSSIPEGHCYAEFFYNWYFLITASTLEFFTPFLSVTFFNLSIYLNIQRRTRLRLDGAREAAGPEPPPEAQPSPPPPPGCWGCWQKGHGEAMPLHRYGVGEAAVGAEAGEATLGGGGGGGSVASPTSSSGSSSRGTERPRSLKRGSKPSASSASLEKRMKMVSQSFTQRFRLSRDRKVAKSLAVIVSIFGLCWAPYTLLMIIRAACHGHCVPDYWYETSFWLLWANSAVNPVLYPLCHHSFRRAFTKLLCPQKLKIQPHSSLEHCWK
Chain of Sodium-dependent dopamine transporter (Q01959 whole entry): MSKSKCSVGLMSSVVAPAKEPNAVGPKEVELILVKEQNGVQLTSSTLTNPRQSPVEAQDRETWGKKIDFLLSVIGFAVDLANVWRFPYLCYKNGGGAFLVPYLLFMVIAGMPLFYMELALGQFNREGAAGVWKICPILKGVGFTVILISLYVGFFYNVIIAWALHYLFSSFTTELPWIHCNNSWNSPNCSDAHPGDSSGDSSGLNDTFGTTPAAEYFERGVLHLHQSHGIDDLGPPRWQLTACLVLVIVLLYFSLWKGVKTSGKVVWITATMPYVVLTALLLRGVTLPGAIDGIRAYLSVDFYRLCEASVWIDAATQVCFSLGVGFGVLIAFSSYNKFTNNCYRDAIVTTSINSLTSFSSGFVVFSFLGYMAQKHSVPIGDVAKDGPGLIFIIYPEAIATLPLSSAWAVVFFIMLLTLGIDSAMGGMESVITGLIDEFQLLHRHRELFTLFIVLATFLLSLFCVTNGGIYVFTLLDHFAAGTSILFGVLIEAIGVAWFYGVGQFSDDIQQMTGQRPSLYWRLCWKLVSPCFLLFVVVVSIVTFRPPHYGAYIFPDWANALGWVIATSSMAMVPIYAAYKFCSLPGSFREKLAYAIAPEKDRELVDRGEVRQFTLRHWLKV
Chain of cGMP-inhibited 3',5'-cyclic phosphodiesterase 3A (Q14432 whole entry): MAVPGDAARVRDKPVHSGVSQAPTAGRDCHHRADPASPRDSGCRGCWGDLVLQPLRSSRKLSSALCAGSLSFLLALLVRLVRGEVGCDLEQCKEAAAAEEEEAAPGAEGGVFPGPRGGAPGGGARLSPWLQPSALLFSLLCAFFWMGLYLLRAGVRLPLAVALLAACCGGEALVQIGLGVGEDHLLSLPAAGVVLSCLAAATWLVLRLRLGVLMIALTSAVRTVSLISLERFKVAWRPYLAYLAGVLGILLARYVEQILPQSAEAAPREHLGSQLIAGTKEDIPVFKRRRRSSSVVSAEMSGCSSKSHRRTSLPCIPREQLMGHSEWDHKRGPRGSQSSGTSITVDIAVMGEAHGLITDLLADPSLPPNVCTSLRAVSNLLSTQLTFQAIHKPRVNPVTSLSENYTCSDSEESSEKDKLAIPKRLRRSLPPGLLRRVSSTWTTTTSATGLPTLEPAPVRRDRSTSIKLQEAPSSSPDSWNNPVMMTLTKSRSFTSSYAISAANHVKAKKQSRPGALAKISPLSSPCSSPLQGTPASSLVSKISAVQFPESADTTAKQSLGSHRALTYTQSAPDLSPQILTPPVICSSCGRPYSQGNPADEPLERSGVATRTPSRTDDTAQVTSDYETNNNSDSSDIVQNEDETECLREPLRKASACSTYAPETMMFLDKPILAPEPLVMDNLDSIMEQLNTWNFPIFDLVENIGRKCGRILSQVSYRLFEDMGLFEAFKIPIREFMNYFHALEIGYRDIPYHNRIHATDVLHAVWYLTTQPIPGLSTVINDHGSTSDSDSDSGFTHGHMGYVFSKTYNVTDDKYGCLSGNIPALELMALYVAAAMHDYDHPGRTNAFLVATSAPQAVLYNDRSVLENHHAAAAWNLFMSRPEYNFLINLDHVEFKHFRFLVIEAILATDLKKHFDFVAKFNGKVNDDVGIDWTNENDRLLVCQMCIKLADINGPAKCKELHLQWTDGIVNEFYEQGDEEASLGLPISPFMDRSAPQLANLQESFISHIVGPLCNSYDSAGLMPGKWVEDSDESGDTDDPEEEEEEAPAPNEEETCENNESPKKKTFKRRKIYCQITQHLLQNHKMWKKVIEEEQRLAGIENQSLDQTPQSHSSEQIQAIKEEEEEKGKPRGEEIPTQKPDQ
Chain of 5-hydroxytryptamine receptor 2B (P41595 whole entry): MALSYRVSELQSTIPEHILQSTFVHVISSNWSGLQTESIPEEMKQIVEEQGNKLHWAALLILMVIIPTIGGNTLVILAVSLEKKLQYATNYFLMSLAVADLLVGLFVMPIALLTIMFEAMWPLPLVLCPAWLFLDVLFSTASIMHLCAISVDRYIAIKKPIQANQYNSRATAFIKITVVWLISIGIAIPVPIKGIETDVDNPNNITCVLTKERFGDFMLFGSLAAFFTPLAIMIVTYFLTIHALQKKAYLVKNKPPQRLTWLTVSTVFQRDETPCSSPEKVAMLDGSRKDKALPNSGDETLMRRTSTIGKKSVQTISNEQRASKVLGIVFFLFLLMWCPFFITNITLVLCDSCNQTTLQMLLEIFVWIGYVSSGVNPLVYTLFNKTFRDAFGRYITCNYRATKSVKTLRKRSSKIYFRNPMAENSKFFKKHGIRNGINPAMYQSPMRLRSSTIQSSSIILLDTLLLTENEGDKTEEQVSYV
Chain of Voltage-gated inwardly rectifying potassium channel KCNH2 (Q12809 whole entry): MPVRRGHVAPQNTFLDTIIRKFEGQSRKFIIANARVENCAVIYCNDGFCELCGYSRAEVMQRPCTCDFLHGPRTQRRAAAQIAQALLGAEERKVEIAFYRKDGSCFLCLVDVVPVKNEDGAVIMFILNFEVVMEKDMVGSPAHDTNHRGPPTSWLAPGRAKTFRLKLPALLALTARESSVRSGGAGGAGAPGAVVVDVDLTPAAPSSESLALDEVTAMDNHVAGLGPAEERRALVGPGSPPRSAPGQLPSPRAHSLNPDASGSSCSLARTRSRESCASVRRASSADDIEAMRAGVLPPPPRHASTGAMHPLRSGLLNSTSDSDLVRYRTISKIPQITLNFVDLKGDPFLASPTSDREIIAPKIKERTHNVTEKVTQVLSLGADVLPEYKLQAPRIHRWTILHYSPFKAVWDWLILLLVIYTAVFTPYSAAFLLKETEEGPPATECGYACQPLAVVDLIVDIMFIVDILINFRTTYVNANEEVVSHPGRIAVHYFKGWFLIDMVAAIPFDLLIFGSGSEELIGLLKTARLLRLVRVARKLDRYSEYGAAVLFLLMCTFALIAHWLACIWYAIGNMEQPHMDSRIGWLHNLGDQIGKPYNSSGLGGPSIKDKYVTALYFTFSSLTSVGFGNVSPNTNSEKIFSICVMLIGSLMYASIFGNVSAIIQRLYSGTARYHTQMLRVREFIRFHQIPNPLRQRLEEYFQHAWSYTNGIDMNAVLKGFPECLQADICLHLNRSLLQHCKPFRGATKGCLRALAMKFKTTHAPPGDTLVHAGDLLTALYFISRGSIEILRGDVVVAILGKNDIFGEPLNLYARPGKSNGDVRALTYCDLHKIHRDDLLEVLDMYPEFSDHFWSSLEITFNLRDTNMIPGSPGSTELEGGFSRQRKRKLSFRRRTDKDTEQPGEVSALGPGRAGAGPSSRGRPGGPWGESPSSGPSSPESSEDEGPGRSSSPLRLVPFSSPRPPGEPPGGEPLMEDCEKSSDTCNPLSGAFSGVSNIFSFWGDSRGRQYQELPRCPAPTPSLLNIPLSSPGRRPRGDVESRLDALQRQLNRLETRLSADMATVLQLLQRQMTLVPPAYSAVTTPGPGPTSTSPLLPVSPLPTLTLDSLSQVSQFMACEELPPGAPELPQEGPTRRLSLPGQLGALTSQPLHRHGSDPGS

Compound	AC50 (Histamine H3 receptor) [µM]	AC50 (Prothrombin) [µM]	AC50 [1] [µM]	AC50 ([2]; read-out: AC50) [µM]	AC50 [3] [µM]	AC50 [4] [µM]	AC50 [5] [µM]	AC50 (Progesterone receptor) [µM]	AC50 [6] [µM]	AC50 [7] [µM]	AC50 [8] [µM]	AC50 ([2]; human, cellular components) [µM]
CN(C)c1ccc(C(=C2C=CC(=[N+](C)C)C=C2)c2ccc(N(C)C)cc2)cc1 [GENTIAN VIOLET]	4.71	25.2	> 30	1	3.4	> 30	> 30	1.67	1.43	> 30	13.2	–
Nc1ccc(S(N)(=O)=O)cc1 [SULFANILAMIDE]	> 30	> 30	> 30	–	> 30	> 30	> 30	> 30	> 30	> 30	> 30	–
HYDROXOCOBALAMIN	–	–	–	–	–	–	–	–	–	–	–	> 30
